In ChEMBL document CHEMBL4627296, “Enhanced cellular uptake efficiency of DCM probes or SN38 conjugating with phenylboronic acids” (Bioorg Med Chem, 2020):

Experiments:
[1] = Drug uptake in human HepG2 cells at 10 uM measured after 1 hr by fluorescence analysis; format: ADME, cell-based; settings: hepg2, 1 h
[2] = Solubility of the compound in water; format: physicochemical; settings: buffer
[3] = Drug uptake in human HepG2 cells assessed as mean fluorescence intensity at 10 uM measured after 1 hr by flow cytometry analysis (reference value: 2.74); format: ADME, cell-based; settings: hepg2, 1 h
[4] = Drug uptake in human A549 cells at 10 uM measured after 24 hrs by confocal laser scanning microscopic analysis; format: ADME, cell-based; settings: a549, 24 h
HepG2 [5] = assay: Antiproliferative activity against human HepG2 cells assessed as inhibition of cell proliferation after 72 hrs by MTT assay; format: functional, cell-based; settings: HepG2, 72 h
HepG2 [6] = assay: Potency index, ratio of compound uptake to irinotecan uptake in human HepG2 cells at 10 uM measured after 24 hrs by microplate reader analysis; format: ADME, cell-based; settings: hepg2, 24 h
[7] = Drug metabolism in human HepG2 cells assessed as SN38 release at 10 uM measured after 24 hrs by microplate reader analysis; format: ADME, cell-based; settings: hepg2, 24 h
[8] = Drug uptake in human HepG2 cells at 10 uM measured after 24 hrs by confocal laser scanning microscopic analysis; format: ADME, cell-based; settings: hepg2, 24 h

SMILES | Drug uptake [1] | solubility [2] | Flu intensity [3] | Drug uptake [4] | IC50 (HepG2 [5]) | Ratio (HepG2 [6]) | Drug metabolism [7] | Drug uptake [8]
CCN(CCn1cc(COCCOCCOCCOCCO)nn1)c1ccc(/C=C/C2=CC(=C(C#N)C#N)c3ccccc3O2)cc1 | Active | Soluble | 64.89 |  |  |  |  | 
CCN(CCn1cc(COCCOCCOCCOCCNC(=O)c2cccc([N+](=O)[O-])c2)nn1)c1ccc(/C=C/C2=CC(=C(C#N)C#N)c3ccccc3O2)cc1 | Active | Soluble | 28.12 |  |  |  |  | 
CCN(CCn1cc(COCCOCCOCCOCCNC(=O)c2ccc(B(O)O)cc2)nn1)c1ccc(/C=C/C2=CC(=C(C#N)C#N)c3ccccc3O2)cc1 | Active |  | 99.42 |  |  |  |  | 
CCc1c2c(nc3ccc(OC(=O)N4CCC(CNC(=O)c5ccc(B(O)O)cc5)CC4)cc13)-c1cc3c(c(=O)n1C2)COC(=O)[C@]3(O)CC |  |  |  | Active | 1590 nM | 7 | Metabolite_Notdetected | Active
CCN(CCn1cc(COCCOCCOCCOCCNC(=O)Nc2ccc3c(c2)B(O)OC3)nn1)c1ccc(/C=C/C2=CC(=C(C#N)C#N)c3ccccc3O2)cc1 | Active |  | 86.91 |  |  |  |  | 
CCc1c2c(nc3ccc(OC(=O)N4CCC(N5CCCCC5)CC4)cc13)-c1cc3c(c(=O)n1C2)COC(=O)[C@]3(O)CC |  |  |  |  | 950 nM |  |  | 
CCc1c2c(nc3ccc(OC(=O)N4CCC(CNC(=O)Nc5ccc6c(c5)B(O)OC6)CC4)cc13)-c1cc3c(c(=O)n1C2)COC(=O)[C@]3(O)CC |  |  |  | Active | 840 nM | 3 | Metabolite_Notdetected | Active
CCN(CCn1cc(COCCOCCOCCOCCNC(=O)c2cc(B(O)O)cc([N+](=O)[O-])c2)nn1)c1ccc(/C=C/C2=CC(=C(C#N)C#N)c3ccccc3O2)cc1 | Active |  | 11.83 |  |  |  |  | 
